Reference: PMC7680447 (Glycoconjugate journal, 2020)
“And” between values parts separate entries of the source, which are not always exact repeats. Equal entries are not always repeated. “Also recorded” adds a separate entry of the source. Where two headings read alike, the source gives them in different places.

Assays:
Gal-1 (Galectin-1) [1] = target: T1, Gal-1 (Galectin-1) (Homo sapiens, UniProt P09382); assay: Isothermal titration calorimetry, binding to Gal-1; conditions: for Kd in HEPES buffer (values not given): HEPES buffer containing 0.05% Tween-20, control titrations; for Gal-1 binding affinity in words: ITC in solution; for Gal-1 binding affinity in words / −TΔS / −ΔG / −ΔH: phosphate buffer pH 7.2; for n-value: rounded/summary values in text, Gal-1 treated as a dimer for concentration input
T1 sequence (P09382 whole entry): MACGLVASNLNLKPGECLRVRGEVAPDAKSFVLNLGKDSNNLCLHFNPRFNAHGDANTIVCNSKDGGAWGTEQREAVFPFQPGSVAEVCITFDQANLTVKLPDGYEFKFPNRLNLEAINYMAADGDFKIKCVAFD

his-tagged Gal-1 = his-tagged Gal-1 (Homo sapiens, UniProt P09382); assay: Isothermal titration calorimetry, binding to his-tagged Gal-1; conditions: for agreement of titrations: his-tagged Gal-1 vs Gal-1 and previously reported value, ref [40]; for n (binding stoichiometry): lectin treated as a dimer
Sequence of his-tagged Gal-1 (P09382 whole entry): as above

Gal-3 (Galectin-3) [2] = target: T2, Gal-3 (Galectin-3) (Homo sapiens, UniProt P17931); conditions: ref [34]; cited from earlier work
T2 sequence (P17931 whole entry): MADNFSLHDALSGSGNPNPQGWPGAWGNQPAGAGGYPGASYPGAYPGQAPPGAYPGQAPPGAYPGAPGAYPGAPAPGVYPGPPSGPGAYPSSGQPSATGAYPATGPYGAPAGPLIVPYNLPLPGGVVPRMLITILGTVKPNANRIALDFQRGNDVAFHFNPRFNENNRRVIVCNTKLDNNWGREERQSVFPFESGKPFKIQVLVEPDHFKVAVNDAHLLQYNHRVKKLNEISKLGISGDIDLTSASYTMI

Gal-1, His52 mutant = conditions: mutagenesis of His52 enabled binding of TF; ref [16]; cited from earlier work
[3] = tested on: Gal-1 CRD in Gal-1/Gal-3 heterodimers; conditions: sequential model, at full loading, ref [48]; cited from earlier work
Gal-1 (Galectin-1) [4] = target: T1, Gal-1 (Galectin-1); conditions: in solution, isothermal titration calorimetry, ref [16]; cited from earlier work
Gal-1 = conditions: glycan microarray format, ref [29]; cited from earlier work
Gal-3 (Galectin-3) [5] = target: T2, Gal-3 (Galectin-3); assay: Binding to Gal-3; conditions: Gal-3 affinity greater than Gal-1 (Table 1 and Fig. S15)
[6] = target: histidine-tagged Galectin-1 (human, UniProt P09382 1-135); assay: ITC
Sequence of histidine-tagged Galectin-1 (P09382 whole entry): as the sequence (P09382 whole entry) above

Galectin-3 = Galectin-3 (UniProt P17931 1-250); assay: ITC
Sequence of Galectin-3 (P17931 whole entry): as the sequence (P17931 whole entry) above

Galectin-1 = Galectin-1 (human, UniProt P09382 1-135); assay: ITC
Sequence of Galectin-1 (P09382 whole entry): as the sequence (P09382 whole entry) above

[7] = ITC, 25 °C, one-set-of-sites model
[8] = ITC, PEAQ-ITC, 25 °C, 20 mM phosphate, 10 mM NaCl, 10 mM β-mercaptoethanol, pH 7.2, one-set-of-sites model, [ligand] mM/[cell] μM: LacNAc 6.0/140, lactose 8.0/80, ASF 218/61 (so in the source), TF and Thr-TF 6.0/50
[9] = ITC, 25 °C, pH 7.2, ASF at 0.525 mM
[10] = second ASF titration: 0.700 mM ASF, 200 μM His-tag-Gal-1, ITC, 25 °C, pH 7.2

Molecule | −TΔS (Gal-1 (Galectin-1) [1]; [7]) [kcal/mol] | −ΔG (Gal-1 (Galectin-1) [1]; [7]) [kcal/mol] | Ka (Gal-1 (Galectin-1) [1]; [8]) [M⁻¹] | Kd (Gal-1 (Galectin-1) [1]; [8]) [mM] | −TΔS (his-tagged Gal-1; [9]) [kcal/mol] | −ΔG (his-tagged Gal-1; [9]) [kcal/mol] | −ΔH (Gal-1 (Galectin-1) [1]; [7]) | n-value (Gal-1 (Galectin-1) [1]) | −ΔH (his-tagged Gal-1; [9]) | n (binding stoichiometry) (his-tagged Gal-1; [9]) | Kd in HEPES buffer (values not given) (Gal-1 (Galectin-1) [1]) | Gal-1 binding affinity in words (Gal-1 (Galectin-1) [1]; 25 °C) | agreement of titrations (his-tagged Gal-1) | further results
ASF: Asialofetuin from fetal calf serum Type 1, a glycoprotein with three triantennary LacNAc presentations | 58.2 | 7.15 | 174000 | 0.00576 | 50.1 | 7.37 | – | – | – | – | mirrored the values obtained in phosphate buffer | remained in the uM range; also recorded: low micromolar affinity | in agreement with values obtained for Gal-1 and previously reported value | Ka (his-tagged Gal-1; [10]): 340100 M⁻¹; Kd (his-tagged Gal-1; [10]): 2.94 µM; −TΔS (his-tagged Gal-1; [10]): 49.6 kcal/mol; −ΔG (his-tagged Gal-1; [10]): 7.55 kcal/mol
CC(=O)N[C@@H](C=O)[C@@H](O[C@@H]1O[C@H](CO)[C@H](O)[C@H](O)[C@H]1O)[C@@H](O)[C@H](O)CO [TF, 2-Acetamido-2-deoxy-3-O-β-D-galactopyranosyl-D-galactose] | 13.4 | 3.30 | 260 | – | – | – | 16.7 (± 0.221) kcal/mol | – | – | – | – | – | – | Thermodynamic driving force of Gal-3 binding (Gal-3 (Galectin-3) [2]): enthalpy-driven; Kd (Gal-1 (Galectin-1) [1]): 3.8 mM; Gal-1 binding affinity in words (Gal-1 (Galectin-1) [1]; 25 °C, listed as TF disaccharide): binding by Gal-1 in mM range; also recorded: failed to recognize TF disaccharide and Thr-TF (TF antigen) beyond the millimolar affinity; Affinity of TF for His52-mutated Gal-1 (Gal-1, His52 mutant): high μM affinity; Affinity of the Gal-1 CRD for TF [3]: high mM range; Gal-1 recognition of TF antigen by ITC (Bian et al.) (Gal-1 (Galectin-1) [4]): failed to observe Gal-1 recognition of the TF antigen in solution beyond millimolar affinity; Gal-1 binding to TF antigen, glycan microarray (Gal-1): did not bind significantly
Asialofetuin (ASF) from fetal calf serum Type 1 (natural protein, bovine (from fetal calf serum), UniProt P12763 19-359, looked up, desialylated glycoprotein with three triantennary LacNAc presentations (glycan valency of nine)) IPLDPVAGYKEPACDDPDTEQAALAAVDYINKHLPRGYKHTLNQIDSVKVWPRRPTGEVYDIEIDTLETTCHVLDPTPLANCSVRQQTQHAVEGDCDIHVLKQDGQFSVLFTKCDSSPDSAEDVRKLCPDCPLLAPLNDSRVVHAVEVALATFNAESNGSYLQLVEISRAQFVPLPVSVSVEFAVAATDCIAKEVVDPTKCNLLAEKQYGFCKGSVIQKALGGEDVRVTCTLFQTQPVIPQPQPDGAEAEAPSAVPDAAGPTPSAAGPPVASVVVGPSVVAVPLPLHRAHYDLRHTFSGVASVESSSGEAFHVGKTPIVGQPSIPGGPVRLCPGRIRYFKI | – | – | – | – | – | – | – | – | – | – | – | – | – | -dH [6]: 57.1 kcal/mol and 57.5 kcal/mol; stoichiometry N [6]: 0.274 and 0.283; fold affinity for ASF against Gal-1 (Galectin-3): ~12 fold; -dH (Galectin-1): 65.4 ± 1.42 kcal/mol; stoichiometry N (Galectin-1): 0.222

Continued, in another order:

−TΔS (Gal-1 (Galectin-1) [1]; [7]) [kcal/mol] | −ΔG (Gal-1 (Galectin-1) [1]; [7]) [kcal/mol] | Ka (Gal-1 (Galectin-1) [1]; [8]) [M⁻¹] | Kd (Gal-1 (Galectin-1) [1]; [8]) [mM] | −TΔS (his-tagged Gal-1; [9]) [kcal/mol] | −ΔG (his-tagged Gal-1; [9]) [kcal/mol] | −ΔH (Gal-1 (Galectin-1) [1]; [7]) | n-value (Gal-1 (Galectin-1) [1]) | −ΔH (his-tagged Gal-1; [9]) | n (binding stoichiometry) (his-tagged Gal-1; [9]) | Molecule | Kd in HEPES buffer (values not given) (Gal-1 (Galectin-1) [1]) | Gal-1 binding affinity in words (Gal-1 (Galectin-1) [1]; 25 °C) | agreement of titrations (his-tagged Gal-1) | further results
13.3 | 3.28 | 250 | 3.96 | – | – | 16.6 (± 0.269) kcal/mol | – | – | – | CC(=O)NC1C(OC(C)C(N)C(=O)O)OC(CO)C(O)C1OC1OC(CO)C(O)C(O)C1O (centres unmarked) [Thr-TF, Gal1–3βGalNAcα1-O-Thr] | – | failed to recognize TF disaccharide and Thr-TF (TF antigen) beyond the millimolar affinity | – | Gal-1 binding affinity in words (Gal-1 (Galectin-1) [1]; 25 °C, listed as Thr-TF antigen): binding by Gal-1 in mM range
4.40 | 5.57 | 12000 | 0.083 | 4.27 | 5.53 | 9.97 (± 0.151) kcal/mol | 2 | 9.79 (± 0.206) kcal/mol | 2.02 | CC(=O)N[C@H]1C(O)O[C@H](CO)[C@@H](O[C@@H]2O[C@H](CO)[C@H](O)[C@H](O)[C@H]2O)[C@@H]1O (some centres unmarked) [LacNAc, N-Acetyllactosamine] | mirrored the values obtained in phosphate buffer | – | in agreement with values obtained for Gal-1 and previously reported value | Gal-3 affinity relative to Gal-1 (Gal-3 (Galectin-3) [5]): ~2 x
7.09 | – | – | – | 4.04 | – | 11.9 (± 0.906) kcal/mol | 2 | 8.67 (± 1.43) kcal/mol | 2.05 | OC[C@H]1O[C@@H](O[C@H]2[C@H](O)[C@@H](O)C(O)O[C@@H]2CO)[C@H](O)[C@@H](O)[C@H]1O (mixture of isomers) [Lactose, lactose] | – | – | in agreement with values obtained for Gal-1 and previously reported value | –
